Test results from PubChem BioAssay AID1996.
≈ marks a conversion by molar mass, not a printed value.

Details: buffer; pH 7.4; 200.0 µM
Work on `C=CCn1c(SCC(=O)NCC)nc2sc3c(c2c1=O)CCC3` yielded a solubility kinetic of 37.5 µg/mL (≈ 107 µM).
With `CC1C(=O)Nc2ccc(S(=O)(=O)N3CCCCCC3)cc21` (centres undefined) the solubility kinetic was greater than 46.3 µg/mL.
Work on `CCOc1ccc(-c2c(C)n([O-])c3c([n+]2=O)CCCCC3)cc1` yielded a solubility kinetic greater than 47.2 µg/mL.
Work on `CC(Sc1nc(-c2ccco2)nc2c1c(=O)n(C)c(=O)n2C)C(=O)O` (centres undefined) yielded a solubility kinetic greater than 54.4 µg/mL.
`Cc1[nH]c(=S)c(C#N)c(-c2ccco2)c1C(=O)N(C)C` showed a solubility kinetic greater than 43.1 µg/mL.
Work on `COc1cc(/C=C/c2nc3ccccc3c(=O)[nH]2)cc(Cl)c1O` yielded a solubility kinetic of 43.2 µg/mL (≈ 131 µM).
Work on `Cc1ccc2nc(-c3cc(-c4ccccc4)no3)cn2c1` yielded a solubility kinetic of 0.3 µg/mL (≈ 1.09 µM).
Compound `CNc1ccc(Cl)cc1C(N)=O` has a solubility kinetic greater than 27.7 µg/mL.
Work on `OC(CN1CCOCC1)(c1ccccc1)c1ccccn1` (centres undefined) yielded a solubility kinetic greater than 42.7 µg/mL.
Work on `O=C(CS(=O)CC(=O)Nc1cccnc1)Nc1ccc(F)cc1` (centres undefined) yielded a solubility kinetic greater than 50.3 µg/mL.
In the case of `O=C(/C=C/c1cccc([N+](=O)[O-])c1)OCC(=O)c1ccccc1`, the solubility kinetic is reported as less than 0.7 µg/mL.
Compound `CCc1ccccc1Nc1nc2ccccc2[nH]1` has a solubility kinetic of 33.2 µg/mL (≈ 140 µM).
`COc1ccc(NC(=O)c2ccc(S(=O)(=O)N3CCCCC3)cc2)cc1OC` showed a solubility kinetic of 5.5 µg/mL (≈ 13.6 µM).
`Cc1ccnc(N2C3CCC2CC(O)(c2ccccc2)C3)n1` (centres undefined) showed a solubility kinetic greater than 44.3 µg/mL.
Work on `COc1ccc(CC(=O)OCC(=O)NC2CCCC(C)C2C)cc1OC` (centres undefined) yielded a solubility kinetic greater than 54.5 µg/mL.
In the case of `CCOC(=O)C1CCN(C(=O)CSc2nc3ncccc3[nH]2)CC1`, the solubility kinetic is reported as 51.5 µg/mL (≈ 148 µM).
For `O=[N+]([O-])/C(C(Cl)=C(Cl)Cl)=C1\Nc2ccccc2O1`, the solubility kinetic was greater than 46.1 µg/mL.
With `COC(=O)c1cc(C(=O)OC)n(Cc2ccc(F)cc2)c1C` the solubility kinetic was 10.6 µg/mL (≈ 34.7 µM).
With `CCN(C(=O)COC(=O)CNC(=O)c1ccc(Cl)cc1Cl)c1c(N)n(Cc2ccccc2)c(=O)[nH]c1=O` the solubility kinetic was greater than 82.3 µg/mL.
For `O=C(NCC1CC1)Nc1ccccc1`, the solubility kinetic was greater than 28.5 µg/mL.
For `Cc1ccccc1C(=O)N[C@H](C(=O)OCC(=O)NC1CC1)C(C)C`, the solubility kinetic was greater than 49.9 µg/mL.
In the case of `CCc1ccc(OCC(=O)NC2CC(C)(C)NC(C)(C)C2)cc1`, the solubility kinetic is reported as 44 µg/mL (≈ 138 µM).
`CC(SCC(=O)Nc1ccccc1Br)c1nc2ccccc2c(=O)[nH]1` (centres undefined) gave a solubility kinetic of 3.2 µg/mL (≈ 7.65 µM).
`NS(=O)(=O)c1ccc(NC(=O)c2cc(=O)c3ccccc3o2)cc1` gave a solubility kinetic of 18.7 µg/mL (≈ 54.3 µM).
`Clc1ccc2nc(-c3ccccc3)cn2c1` showed a solubility kinetic of 1.4 µg/mL (≈ 6.12 µM).
For `Cc1ccc(-c2onc3ccc(C(=O)/C=C/N(C)C)cc23)cc1`, the solubility kinetic was 2.3 µg/mL (≈ 7.51 µM).
`CC(=O)Nc1ccc2nc(-c3ccco3)[nH]c2c1` showed a solubility kinetic greater than 36.2 µg/mL.
In the case of `Cc1ccc(C(=O)N2CCN(C(=O)C3CCCO3)CC2)cc1` (centres undefined), the solubility kinetic is reported as greater than 45.4 µg/mL.
`CCOC(=O)C1CCN(C(=O)c2cc3c(C)cc(C)cc3[nH]2)CC1` showed a solubility kinetic of 7.7 µg/mL (≈ 23.4 µM).
`O=C(O)C1CCC1C(=O)Nc1nc(-c2ccc(Cl)s2)cs1` (centres undefined) gave a solubility kinetic greater than 51.4 µg/mL.
With `CC(=O)NC1=NN(C(C)=O)C(C)(c2cccnc2)S1` (centres undefined) the solubility kinetic was greater than 41.7 µg/mL.
Compound `Cc1cc(C)c2c(N)c(C(=O)Nc3cccc(C)c3C)sc2n1` has a solubility kinetic of 1.2 µg/mL (≈ 3.69 µM).
With `C=CCC1Cc2c(Br)cccc2C(CC=C)N1` (centres undefined) the solubility kinetic was 13.3 µg/mL (≈ 45.5 µM).
`O=C1NC(c2ccc(O)cc2)Nc2ccccc21` (centres undefined) gave a solubility kinetic of 29.2 µg/mL (≈ 122 µM).
`O=C(Nc1cccc(NC(=O)C2CCCO2)c1)C1CCCO1` (centres undefined) showed a solubility kinetic greater than 45.7 µg/mL.
With `Cc1ccc(C(=O)NC2CCCCCCC2)c(Cl)c1` the solubility kinetic was 3.2 µg/mL (≈ 11.4 µM).
In the case of `COc1cc(C)nc(NC(=S)N(C)C(=O)c2ccccc2)n1`, the solubility kinetic is reported as 0.5 µg/mL (≈ 1.58 µM).
Compound `Cc1ccccc1-c1noc(-c2ccccc2C(=O)O)n1` has a solubility kinetic greater than 42 µg/mL.
With `Cc1ccc(SCCOCCN2CC(C)OC(C)C2)cc1.Cl` (centres undefined) the solubility kinetic was 42.5 µg/mL.
With `N#Cc1ccccc1CSc1nc(N)cc(N)n1` the solubility kinetic was 36.6 µg/mL (≈ 142 µM).
Compound `CCOc1nc(C)cc(COC)c1C(N)=O` has a solubility kinetic greater than 33.6 µg/mL.
With `CC1CCCCN1C(=O)CCS(=O)(=O)c1cccc2nonc12` (centres undefined) the solubility kinetic was 41.8 µg/mL (≈ 124 µM).
For `Cc1cc(C(=O)N2CCN(c3ncccc3C#N)CC2)no1`, the solubility kinetic was 43.7 µg/mL (≈ 147 µM).
`O=C(NC(=S)NC1CCS(=O)(=O)C1)c1ccccc1` (centres undefined) showed a solubility kinetic greater than 44.8 µg/mL.
Work on `Cc1ccsc1CNS(=O)(=O)c1ccc(F)cc1` yielded a solubility kinetic of 30 µg/mL (≈ 105 µM).
With `Cc1csc(NC(=O)c2ccc3c(c2)OCO3)n1` the solubility kinetic was 31.4 µg/mL (≈ 120 µM).
In the case of `CSc1ccc(/C=C/C(=O)N2CCCN(C)CC2)cc1.Cl`, the solubility kinetic is reported as 44.1 µg/mL.
In the case of `Cc1nc(N=C(N)N)nc2ccccc12`, the solubility kinetic is reported as greater than 30.2 µg/mL.
`c1ccc(-c2noc(-c3ccno3)n2)nc1` gave a solubility kinetic of 25.4 µg/mL (≈ 119 µM).
`N[C@H](CSCc1ccccc1)C(=O)Nc1ccc([N+](=O)[O-])cc1` gave a solubility kinetic of 36.3 µg/mL (≈ 110 µM).
For `CC1=C(C)C(OCCCl)N(c2cc(O)c(Cl)cc2F)C1=O` (centres undefined), the solubility kinetic was 46.3 µg/mL (≈ 139 µM).
In the case of `Brc1ccc(COn2ccnc2)cc1`, the solubility kinetic is reported as greater than 38 µg/mL.
Work on `Cc1cnc(C(=O)OC(C)C(=O)NCc2ccccc2)cn1` (centres undefined) yielded a solubility kinetic greater than 44.9 µg/mL.
`CC(NC(=O)c1ccc(Br)o1)C1CC2CCC1C2` (centres undefined) showed a solubility kinetic of 29.3 µg/mL (≈ 93.8 µM).
